The assay concerns PDE IV. Nature of the assay: PDE IV inhibiting effect (3H-cAMP hydrolysis, crude enzyme from U937 cells). The conditions noted are these: read-out: IC50 (concentration for 50% inhibition) against PDE IV; crude enzyme from cytoplasmic fraction of human monocyte-like U937 cells; 0.4 μM 3H-cAMP; pH 8.0; 30° C., 15 minutes.

Molecules are shown by their SMILES.

Method: The crude enzyme was purified from a cytoplasmic fraction of human monocyte-like cell strain U937 by using a Q-Sepharose column according to the method of Nicholson et al. (Br. J. Pharmacol., 97, 889 (1989)]. The enzymatic activity was determined by performing a reaction using 0.4 μM ^3H-cAMP as the substrate in 50 mM Tris buffer (pH 8.0) containing 0.1 mg/ml BSA, 1 ml of EDTA and 5 mM MgCl2 at 30° C. for 15 minutes, and then separating the produced ^3H-5′-AMP using a cation exchange column and measuring its radioactivity according to the method of Hidaka et al. [Biochem. Med., 10, 301 (1974)]. After a test compound was added, the reaction mixture was incubated at 30° C. for 15 minutes, and then added with the substrate.

Regarding `COc1ccc(Cn2c(C)nc3c(C)nc(OCCCc4cc[n+]([O-])cc4)nc32)cc1OC1CCCC1` [dihydrate of the present invention, Dihydrate of 4-[[9-[(3-cyclopentyloxy-4-methoxy)benzyl]-6,8-dimethylpurine]-2-yl-3-oxypropyl]pyridine N-oxide], the IC50 is 3.41 nM.

These data come from patent publication US6919455B2, “Purine derivative dihydrate, drugs containing the same as the active ingredient and intermediate in the production thereof” (Mitsubishi Chemical Corporation, priority 1999, dated 2005).
